According to patent publication US5990146A, “Benzimidazoles for inhibiting protein tyrosine kinase mediated cellular proliferation” (Warner-Lambert Company, priority 1998, dated 1999):
pIC50: −log10 of the molar value. Structures can show the parent of a compound that is named as a salt.

Tests used:
insulin receptor (INSr) = target: T1, insulin receptor (INSr) (Homo sapiens, UniProt P06213); assay: Insulin receptor kinase assay; format: biochemical; details: Table 1; as for EGF receptor with 10 mM manganese chloride
T1 construct: An assay using the intracellular kinase domains of insulin receptor (INSr) is performed

[1] = target: T2, Human EGF receptor tyrosine kinase (Homo sapiens, UniProt P00533); assay: EGFr tyrosine kinase assay; format: biochemical; details: Table 1; 10 μM ATP, 25° C., 10 minutes
T2 construct: Human EGF receptor tyrosine kinase is isolated from A431 human epidermoid carcinoma cells; endogenous in cells; host or cells: A431 human epidermoid carcinoma cells (detergent lysate, fast Q sepharose fractions)

[2] = target: T3, PDGF receptor tyrosine kinase (mouse PDGF-β) (Mus musculus, UniProt P05622); assay: PDGFr tyrosine kinase assay (poly glutamate-tyrosine phosphorylation); format: biochemical; details: Table 1; 10 minutes at 25° C.
T3 construct: PCR primers are designed to amplify a fragment of DNA that codes for the intracellular tyrosine kinase domain; made in house; host or cells: Sf9 insect cells (baculovirus), cell lysate
Protocol: Platelet Derived Growth Factor Receptor (PDGFr) and Fibroblast Growth Factor Receptor (FGFr)
Full length cDNAs for the mouse PDGF-β and human FGF-1 (flg) receptor tyrosine kinases were obtained from J. Escobedo and are prepared as described in J. Biol. Chem., 262: 1482-1487 (1991). PCR primers are designed to amplify a fragment of DNA that codes for the intracellular tyrosine kinase domain. The fragment is melded into a baculovirus vector, cotransfected with AcMNPV DNA, and the recombinant virus isolated. SF9 insect cells are infected with the virus to overexpress the protein, and the cell lysate is used for the assay.
The assay is performed in 96-well plates (100 μL/incubation/well), and conditions are optimized to measure the incorporation of ^32 p from [γ^32 P]-ATP into a glutamate-tyrosine copolymer substrate. Briefly, to each well is added 82.5 μL of incubation buffer containing 25 mM Hepes (pH 7.0), 150 mM NaCl, 0.1% Triton X-100, 0.2 mM PMSF, 0.2 mM sodium vanadate, 10 mM manganese chloride, and 750 μg/mL of poly (4:1) glutamate-tyrosine followed by 2.5 μL of inhibitor and 5 μL of enzyme lysate (7.5 μg/μL FGFR-TK or 6.0 μg/μL PDGFR-TK) to initiate the reaction. Following a 10 minute incubation at 25° C., 10 μL of [γ^32 P]-ATP (0.4 μCi plus 50 μM ATP) is added to each well and samples are incubated for an additional 10 minutes at 25° C. The reaction is terminated by the addition of 100 μL of 30% trichloroacetic acid (TCA) containing 20 mM sodium pyrophosphate and precipitation of material onto glass fiber filter mats (Wallac). Filters are washed 3 times with 15% TCA containing 100 mM sodium pyrophosphate and the radioactivity retained on the filters counted in a Wallac 1250 Betaplate reader. Nonspecific activity is defined as radioactivity retained on the filters following incubation of samples with buffer alone (no enzyme). Specific enzymatic activity is defined as total activity (enzyme plus buffer) minus nonspecific activity.

c-Src = target: T4, c-Src (Homo sapiens, UniProt P12931); assay: c-Src kinase assay; format: biochemical; details: Table 1; 5 μM ATP, room temperature, 10 minutes
T4 construct: made in house; host or cells: baculovirus infected insect cells
Protocol: c-Src kinase is purified from baculovirus infected insect cell lysates using an antipeptide monoclonal antibody directed against the N-terminal 2-17 amino acids as described previously by Fry, et al, Anticancer Drug Design. 9: 331-351 (1994). […] At the end of the lysate incubation, the beads are rinsed 3 times in lysis buffer, resuspended in lysis buffer containing 10% glycerol, and frozen. These latex beads are thawed, rinsed 3 times in assay buffer which is comprised of 40 mM tris pH 7.5, 5 mM magnesium chloride, and suspended in the same buffer. […] The reaction is started at room temperature by addition of the ATP and quenched 10 minutes later by the addition of 125 μL of 30% TCA, 0.1 M sodium pyrophosphate for 15 minutes on ice. The plate is then filtered and the wells washed with two 250-μL aliquots of 15% TCA, 0.1 M pyrophosphate. The filters are punched, counted in a liquid scintillation counter, and the data examined for inhibitory activity in comparison to a known inhibitor such as erbstatin. The method is described more fully in J. Med. Chem., 37: 598-609 (1994).

[3] = target: T5, FGF receptor tyrosine kinase (human FGF-1 (flg)) (Homo sapiens, UniProt P11362); assay: FGFr tyrosine kinase assay (poly glutamate-tyrosine phosphorylation); format: biochemical; details: Table 1; 10 minutes at 25° C.
T5 construct: PCR primers are designed to amplify a fragment of DNA that codes for the intracellular tyrosine kinase domain; made in house; host or cells: Sf9 insect cells (baculovirus), cell lysate
Protocol: Platelet Derived Growth Factor Receptor (PDGFr) and Fibroblast Growth Factor Receptor (FGFr) Full length cDNAs for the mouse PDGF-β and human FGF-1 (flg) receptor tyrosine kinases were obtained from J. Escobedo and are prepared as described in J. Biol. Chem., 262: 1482-1487 (1991). PCR primers are designed to amplify a fragment of DNA that codes for the intracellular tyrosine kinase domain. The fragment is […] into a baculovirus vector, cotransfected with AcMNPV DNA, and the recombinant virus isolated. SF9 insect cells are infected with the virus to overexpress the protein, and the cell lysate is used for the […] and FGFr The assay is performed in 96-well plates (100 μL/incubation/well), and conditions are optimized to measure the incorporation of ^32 p from [γ^32 P]-ATP into a glutamate-tyrosine copolymer substrate. […] The reaction is terminated by the addition of 100 μL of 30% trichloroacetic acid (TCA) containing 20 mM sodium pyrophosphate and precipitation of material onto glass fiber filter mats (Wallac). Filters are washed 3 times with 15% TCA containing 100 mM sodium pyrophosphate and the radioactivity retained on the filters counted in a Wallac 1250 Betaplate reader. Nonspecific activity is defined as radioactivity retained on the filters following incubation of samples with buffer alone (no enzyme). Specific enzymatic activity is defined as total activity (enzyme plus buffer) minus nonspecific activity.

[4] = tested on: PDGF receptor autophosphorylation in rat aorta smooth muscle cells; assay: PDGF Receptor Autophosphorylation Assay in rat aorta smooth muscle cells; format: cell-based; details: Table 2, PDGF-BB 30 ng/mL, 2 hours pre-incubation, read-out: IC50, inhibition of PDGF-stimulated receptor autophosphorylation
Protocol: Rat aorta smooth muscle cells (RASMC) are isolated from the thoracic aorta of rats and explanted according to the method of Ross, J. Cell. […] Cells are grown in Dulbecco's modified Eagle's medium (DMEM, Gibco) containing 10% fetal calf serum (FBS, Hyclone, Logan, Utah), 1% glutamine (Gibco) and 1% penicillin/streptomycin (Gibco). Cells are identified as smooth muscle cells by their "hill and valley" growth pattern and by fluorescent staining with a monoclonal antibody specific for SMC μ-actin (Sigma). RASMC are used between passages 5 and 20 for all experiments. Test compounds are prepared in dimethylsulfoxide (DMSO) in order to achieve consistency in the vehicle and to ensure compound solubility. Appropriate DMSO controls are simultaneously evaluated with the test compounds.
Rat aortic smooth muscle cells are grown to confluencey in 100 mm dishes. Growth medium is removed and replaced with serum-free medium and cells are incubated at 37° C. for an additional 24 hours. Test compounds are then added directly to the medium and cells incubated for an additional 2 hours. After 2 hours PDGF-BB is added at a final concentration of 30 ng/mL for 5 minutes at 37° C. to stimulate autophosphorylation of PDGF receptors. Following growth factor treatment, the medium is removed, and cells are washed with cold phosphate-buffered saline and immediately lysed with 1 mL of lysis buffer (50 mM Hepes, pH 7.5, 150 mM NaCl, 10% glycerol, 1% Triton-X 100, 1 mM EDTA, 1 mM EGTA, 50 mM NaF, 1 mM sodium orthovanadate, 30 mM p-nitrophenyl phosphate, 10 mM sodium pyrophosphate, 1 mM phenylmethyl sulfonyl fluoride, 10 μg/mL aprotinin and 10 μg/mL leupeptin). Lysates are centrifuged at 10,000 ×g for 10 minutes. […] Following the incubation, protein-A-sepharose beads are added for 2 hours with continuous mixing, and immune complexes bound to the beads washed 4 times with 1 mL lysis wash buffer. Immune complexes are solubilized in 40 μL of Laemmli sample buffer and electrophoresed in 8-16% SDS polyacrylamide gels. Following electrophoresis, separated proteins are transferred to nitrocellulose and immunoblotted with a 1:1000 dilution of antiphosphotyrosine monoclonal antibody (UBI clone 4G10; #05-321). Following extensive washing with PBS-0.2% tween-20, the blots are incubated with horseradish peroxidase labeled goat antimouse IgG (1:5000; Bio-Rad Inc, Hercules, Calif.) and protein levels are detected by enhanced chemiluminescence (ECL) detection system according to the instructions of the supplier (Amersham Inc, Arlington Heights, Ill.). The density of the protein bands are determined using NIH Image software (v. 1.56) and IC50 values are generated from the densitometric data.

T2 sequence (P00533 25-1210): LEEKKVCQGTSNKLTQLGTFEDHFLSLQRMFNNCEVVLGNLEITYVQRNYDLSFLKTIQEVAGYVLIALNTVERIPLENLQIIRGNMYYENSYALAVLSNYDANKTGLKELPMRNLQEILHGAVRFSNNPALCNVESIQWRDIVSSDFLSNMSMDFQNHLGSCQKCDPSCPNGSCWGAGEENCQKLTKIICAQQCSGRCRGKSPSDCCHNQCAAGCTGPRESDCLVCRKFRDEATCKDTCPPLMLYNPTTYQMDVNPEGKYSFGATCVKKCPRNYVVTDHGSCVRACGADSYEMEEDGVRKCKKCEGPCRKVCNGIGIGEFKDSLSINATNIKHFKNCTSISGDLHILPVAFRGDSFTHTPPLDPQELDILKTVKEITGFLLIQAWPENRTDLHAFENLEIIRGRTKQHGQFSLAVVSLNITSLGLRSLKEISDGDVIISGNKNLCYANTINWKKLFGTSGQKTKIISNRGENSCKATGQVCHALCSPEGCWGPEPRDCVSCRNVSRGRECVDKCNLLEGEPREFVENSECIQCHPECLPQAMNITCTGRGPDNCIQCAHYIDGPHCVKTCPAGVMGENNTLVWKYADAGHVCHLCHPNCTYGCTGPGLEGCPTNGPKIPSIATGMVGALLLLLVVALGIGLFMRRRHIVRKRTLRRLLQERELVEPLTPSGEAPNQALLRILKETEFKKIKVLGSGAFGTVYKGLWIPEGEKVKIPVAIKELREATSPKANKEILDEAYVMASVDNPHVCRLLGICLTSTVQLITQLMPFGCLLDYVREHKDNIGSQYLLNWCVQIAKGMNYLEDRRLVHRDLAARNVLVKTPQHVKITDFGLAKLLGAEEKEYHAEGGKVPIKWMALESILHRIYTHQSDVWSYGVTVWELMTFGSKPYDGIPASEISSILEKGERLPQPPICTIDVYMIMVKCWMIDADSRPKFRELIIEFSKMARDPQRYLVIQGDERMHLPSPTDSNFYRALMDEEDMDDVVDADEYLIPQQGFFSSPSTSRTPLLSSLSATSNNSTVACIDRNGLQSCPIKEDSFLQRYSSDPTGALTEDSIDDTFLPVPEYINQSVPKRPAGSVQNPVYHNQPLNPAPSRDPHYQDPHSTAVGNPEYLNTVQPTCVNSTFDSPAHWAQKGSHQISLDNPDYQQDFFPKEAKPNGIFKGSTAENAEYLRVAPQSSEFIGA
T1 sequence (P06213 1023-1298 limits assumed, species assumed): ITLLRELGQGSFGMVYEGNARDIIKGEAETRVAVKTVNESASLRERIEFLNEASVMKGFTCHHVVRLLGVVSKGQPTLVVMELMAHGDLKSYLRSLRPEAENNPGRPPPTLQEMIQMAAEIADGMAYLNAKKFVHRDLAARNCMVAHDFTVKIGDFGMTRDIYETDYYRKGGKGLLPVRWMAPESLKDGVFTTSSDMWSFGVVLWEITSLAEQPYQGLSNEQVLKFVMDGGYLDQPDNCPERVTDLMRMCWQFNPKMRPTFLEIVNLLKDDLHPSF
T3 sequence (P05622 599-961 limits assumed): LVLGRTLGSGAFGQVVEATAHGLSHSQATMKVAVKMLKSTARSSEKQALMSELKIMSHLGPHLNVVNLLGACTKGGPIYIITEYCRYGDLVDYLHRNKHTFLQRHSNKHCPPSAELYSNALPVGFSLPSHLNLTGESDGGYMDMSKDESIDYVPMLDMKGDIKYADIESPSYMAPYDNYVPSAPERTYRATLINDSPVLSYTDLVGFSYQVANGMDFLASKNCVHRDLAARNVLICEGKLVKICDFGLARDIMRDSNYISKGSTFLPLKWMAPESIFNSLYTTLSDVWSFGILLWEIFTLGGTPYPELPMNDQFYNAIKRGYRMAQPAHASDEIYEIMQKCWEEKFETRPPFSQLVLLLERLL
T5 sequence (P11362 478-767 limits assumed): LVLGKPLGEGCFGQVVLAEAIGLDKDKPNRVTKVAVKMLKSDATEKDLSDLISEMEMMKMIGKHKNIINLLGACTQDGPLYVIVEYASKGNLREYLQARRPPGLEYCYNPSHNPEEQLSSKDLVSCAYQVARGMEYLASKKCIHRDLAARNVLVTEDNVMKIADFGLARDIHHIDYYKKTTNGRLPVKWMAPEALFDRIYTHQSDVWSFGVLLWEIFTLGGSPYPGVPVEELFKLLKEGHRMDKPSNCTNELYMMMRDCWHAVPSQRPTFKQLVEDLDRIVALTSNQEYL
T4 sequence (P12931 whole entry, species assumed): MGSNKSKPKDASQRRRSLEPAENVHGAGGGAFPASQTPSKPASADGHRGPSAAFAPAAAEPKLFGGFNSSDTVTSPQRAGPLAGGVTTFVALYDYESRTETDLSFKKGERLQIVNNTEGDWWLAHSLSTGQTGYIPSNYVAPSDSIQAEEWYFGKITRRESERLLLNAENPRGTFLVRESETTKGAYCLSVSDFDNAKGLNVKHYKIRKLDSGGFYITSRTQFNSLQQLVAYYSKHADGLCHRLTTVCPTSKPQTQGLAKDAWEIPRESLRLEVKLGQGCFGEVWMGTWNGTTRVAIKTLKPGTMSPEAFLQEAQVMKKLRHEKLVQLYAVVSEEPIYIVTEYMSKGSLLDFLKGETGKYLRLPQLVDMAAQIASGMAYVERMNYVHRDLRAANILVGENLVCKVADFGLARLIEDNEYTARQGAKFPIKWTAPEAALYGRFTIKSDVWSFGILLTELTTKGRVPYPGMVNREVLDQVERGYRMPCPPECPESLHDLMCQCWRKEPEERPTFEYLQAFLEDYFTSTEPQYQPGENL

SMILES | pIC50 (insulin receptor (INSr)) | pIC50 [1] | pIC50 [2] | pIC50 (c-Src) | pIC50 [3] | pIC50 [4]
c1ccc(-n2cnc3ccccc32)cc1 [Example 1, 1-Phenylbenzimidazole] | < 4.30 | < 4.30 | – | – | – | –
Nc1cccc(-n2cnc3ccccc32)c1 [Example 3, 1-(3-Aminophenyl)benzimidazole] | < 4.30 | < 4.30 | 5.44 | < 4.30 | – | –
COC(=O)c1ccc(-n2cnc3ccccc32)cc1 [Example 7, 1-(4-Carbomethoxyphenyl)benzimidazole] | < 4.30 | < 4.30 | 5.14 | < 4.30 | < 4.30 | –
Nc1ccc(-n2cnc3ccccc32)cc1 [Example 8, 1-(4-Aminophenyl)benzimidazole Dihydrochloride] | – | – | 5.25 | – | – | < 5.00
Cc1ccc2c(c1)ncn2-c1ccccc1 [Example 12, 5-Methyl-1-phenylbenzimidazole Hydrochloride] | < 4.30 | 4.30 | 5.36 | < 4.30 | < 4.30 | –
O=C(O)c1ccc2c(c1)ncn2-c1ccccc1 [Example 16, 1-Phenylbenzimidazole-5-carboxylic Acid Hydrochloride] | < 4.30 | < 4.30 | 5.03 | 4.30 | 4.55 | –
Nc1ccc2c(c1)ncn2-c1ccccc1 [Example 19, 5-Amino-1-phenylbenzimidazole] | < 4.30 | < 4.30 | 5.57 | < 4.30 | 4.44 | –
O=Cc1ccc2c(c1)ncn2-c1ccccc1 [Example 21, 1-Phenylbenzimidazole-5-carboxaldehyde] | < 4.30 | > 4.30 | 5.08 | 4.30 | 4.30 | –
OCc1ccc2c(c1)ncn2-c1ccccc1 [Example 26, 5-(Hydroxymethyl)-1-phenylbenzimidazole] | < 4.30 | > 4.30 | 4.93 | < 4.30 | < 4.30 | –
CC(=O)Oc1ccc2c(c1)ncn2-c1ccccc1 [Example 27, 5-Acetoxy-1-phenylbenzimidazole] | < 4.30 | < 4.30 | 5.74 | < 4.30 | 4.59 | –
COc1ccc2ncn(-c3ccccc3)c2c1 [Example 40, 6-Methoxy-1-phenylbenzimidazole] | – | – | 5.19 | – | – | < 5.00
COC(=O)c1ccc2ncn(-c3ccccc3)c2c1 [Example 43, Methyl 1-phenylbenzimidazole-6-carboxylate Hydrochloride] | < 4.30 | < 4.30 | 4.89 | < 4.30 | – | –
COc1ccc2c(c1)ncn2-c1cccs1 [Example 55, 5-Methoxy-1-(2-thienyl)benzimidazole Hydrochloride] | < 4.30 | – | 5.60 | < 4.30 | 5.28 | –

The remaining compounds from weak to strong by pIC50 [2], led by results:

pIC50 (insulin receptor (INSr)) | pIC50 [1] | pIC50 [2] | pIC50 (c-Src) | pIC50 [3] | pIC50 [4] | SMILES
> 4.30 | < 4.30 | 5.68 | < 4.30 | – | – | Oc1ccc2ncn(-c3ccccc3)c2c1 [Example 41, 6-Hydroxy-1-phenylbenzimidazole Hydrochloride]
< 4.30 | < 4.30 | 5.80 | > 4.30 | 5.00 | – | NC(=O)c1ccc2c(c1)ncn2-c1ccccc1 [Example 18, 1-Phenylbenzimidazole-5-carboxamide Hydrochloride]
< 4.30 | – | 5.82 | 4.54 | 4.35 | – | CN(C)CCOc1ccc2c(c1)ncn2-c1ccccc1 [Example 36, 5-[2-(N,N-Dimethylamino)ethoxy]-1-phenylbenzimidazole Dihydrochloride]
< 4.30 | – | 6.05 | 4.48 | 4.30 | – | COC(=O)c1cc2c(cc1OC)ncn2-c1ccccc1 [Example 51, Methyl 5-methoxy-1-phenylbenzimidazole-6-carboxylate Hydrochloride]
< 4.30 | < 4.30 | 6.10 | < 4.30 | 5.18 | – | COC(=O)c1ccc2c(c1)ncn2-c1ccccc1 [Example 17, Methyl 1-Phenylbenzimidazole-5-carboxylate]
< 4.30 | – | 6.15 | > 4.30 | 4.57 | – | NCCOc1ccc2c(c1)ncn2-c1ccccc1 [Example 35, 5-(2-Aminoethoxy)-1-phenylbenzimidazole Dihydrochloride]
< 4.30 | – | 6.22 | < 4.30 | 4.46 | – | C=CCOc1ccc2c(c1)ncn2-c1ccccc1 [Example 32, 5-Allyloxy-1-phenylbenzimidazole Hydrochloride]
< 4.30 | < 4.30 | 6.40 | – | 5.19 | – | Oc1ccc2c(c1)ncn2-c1ccccc1 [Example 14, 5-Hydroxy-1-phenylbenzimidazole]
< 4.30 | – | 6.40 | 4.30 | 4.92 | – | COc1cc2ncn(-c3ccccc3)c2cc1CO [Example 53, 6-Hydroxymethyl-5-methoxy-1-phenylbenzimidazole Hydrochloride]
